# Source: ChEMBL document CHEMBL1201862, “PubChem BioAssay data set” (2004)
# The source made the active and inactive calls.
# What was measured:
# [1] = biological target: Ras and Rab interactor 1/Tyrosine-protein kinase ABL1 (Homo sapiens, UniProt P00519+Q13671); type: functional;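 further: biochemical TR-FRET dose-response test measuring inhibition of binding between Rin1 and Abl proteins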
# [2] = tested on: Vero; experiment: viability of Vero cells under compound – cytotoxicity control for flavivirus capping enzyme inhibitors (AID 588742); type: functional; conditions: Chlorocebus sabaeus
# [3] = biological target: Genome polyprotein (dengue virus type 2, UniProt P29990); experiment: flavivirus cap methylation enzyme inhibition – biochemical, confirmation dose response, primary screen (AID 588689); type: functional
# [4] = viability loss in THP-1 monocytes – THP-1 cells, cytotoxicity control for Vif-APOBEC3G degradation inhibitor project, dose response (AID 1117359); type: functional; conditions: THP-1
# [5] = tested on: HEK293; experiment: cells; conditions: Homo sapiens
# [6] = tested on: HEK293; experiment: cells; conditions: Homo sapiens; remark: listed apart in the source
# [7] = biological target: Cell division cycle 7-related protein kinase (Homo sapiens, UniProt O00311); type: functional;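 further: value obtained from a kinome-wide kinase panel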
# [8] = biological target: Cyclin-dependent kinase 19 (Homo sapiens, UniProt Q9BWU1); experiment: Navigating the Kinome. Panel member name: CDC2L6; type: functional
# Sequence of Cyclin-dependent kinase 19 (Q9BWU1 whole entry): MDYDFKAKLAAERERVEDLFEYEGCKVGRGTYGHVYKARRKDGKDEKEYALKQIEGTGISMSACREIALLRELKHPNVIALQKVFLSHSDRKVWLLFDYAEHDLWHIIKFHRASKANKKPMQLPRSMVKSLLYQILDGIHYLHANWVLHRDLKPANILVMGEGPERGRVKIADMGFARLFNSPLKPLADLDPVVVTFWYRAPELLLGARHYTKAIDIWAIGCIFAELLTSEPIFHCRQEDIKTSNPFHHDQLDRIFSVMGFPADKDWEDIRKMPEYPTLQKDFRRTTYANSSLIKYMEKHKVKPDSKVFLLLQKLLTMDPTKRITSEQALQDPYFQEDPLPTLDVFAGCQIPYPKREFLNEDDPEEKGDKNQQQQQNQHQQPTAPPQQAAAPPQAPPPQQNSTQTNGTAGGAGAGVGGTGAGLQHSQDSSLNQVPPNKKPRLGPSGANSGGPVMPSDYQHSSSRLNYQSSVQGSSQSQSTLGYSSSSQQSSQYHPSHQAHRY
# [9] = tested on: HEK293; experiment: EBV LMP1 TES2 canonical NF-kB signalling blockers – cell-based, HEK293, luciferase, cherry-pick, dose response (AID 588343); type: functional; conditions: Homo sapiens
# [10] = biological target: Protein Wnt-3a (Mus musculus, UniProt P27467); experiment: antagonism of Wnt3a pathway luciferase reporter – Wnt-LIGHT cells, luminescence, selectivity assay for Gli-SUFU antagonist project, dose response (AID 651570); type: functional; conditions: read-out: IC50_Mean;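 further: Wnt-LIGHT reporter cells stimulated with conditioned medium from Wnt3a-producing cells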
# [11] = biological target: COUP transcription factor 2 (Homo sapiens, UniProt P24468); experiment: Luminescence-based cell-based high throughput dose response assay to identify inhibitors of COUP-TFII (NR2F2).; type: functional;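 further: HEK293 cells transiently cotransfected with COUP-TFII expression vector and reporter; luciferase reporter luminescence driven by COUP-TFII from the pX2-168 reporter plasmid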
# Sequence of COUP transcription factor 2 (P24468 whole entry): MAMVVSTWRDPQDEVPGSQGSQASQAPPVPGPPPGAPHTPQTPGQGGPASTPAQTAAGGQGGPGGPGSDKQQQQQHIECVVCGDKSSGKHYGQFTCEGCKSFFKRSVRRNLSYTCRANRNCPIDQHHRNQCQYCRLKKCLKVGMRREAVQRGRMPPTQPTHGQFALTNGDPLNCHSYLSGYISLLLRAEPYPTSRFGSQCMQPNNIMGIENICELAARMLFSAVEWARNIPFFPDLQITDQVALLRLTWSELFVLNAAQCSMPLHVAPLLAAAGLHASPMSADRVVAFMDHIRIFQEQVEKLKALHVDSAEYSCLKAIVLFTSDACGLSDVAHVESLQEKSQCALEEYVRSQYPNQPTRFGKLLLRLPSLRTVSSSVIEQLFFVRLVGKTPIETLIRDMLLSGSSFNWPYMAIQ
# [12] = microbe, parasite or virus in culture; type: functional; conditions: Mycobacterium tuberculosis
# [13] = biological target: Heat shock protein HSP 90-alpha (Homo sapiens, UniProt P07900); type: functional, organism-based
# [14] = biological target: T1, Aryl hydrocarbon receptor (Homo sapiens, UniProt P35869); conditions: Potency;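 further: confirmatory quantitative high-throughput screen measuring activation of the AhR signaling pathway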
# T1 sequence (P35869 whole entry): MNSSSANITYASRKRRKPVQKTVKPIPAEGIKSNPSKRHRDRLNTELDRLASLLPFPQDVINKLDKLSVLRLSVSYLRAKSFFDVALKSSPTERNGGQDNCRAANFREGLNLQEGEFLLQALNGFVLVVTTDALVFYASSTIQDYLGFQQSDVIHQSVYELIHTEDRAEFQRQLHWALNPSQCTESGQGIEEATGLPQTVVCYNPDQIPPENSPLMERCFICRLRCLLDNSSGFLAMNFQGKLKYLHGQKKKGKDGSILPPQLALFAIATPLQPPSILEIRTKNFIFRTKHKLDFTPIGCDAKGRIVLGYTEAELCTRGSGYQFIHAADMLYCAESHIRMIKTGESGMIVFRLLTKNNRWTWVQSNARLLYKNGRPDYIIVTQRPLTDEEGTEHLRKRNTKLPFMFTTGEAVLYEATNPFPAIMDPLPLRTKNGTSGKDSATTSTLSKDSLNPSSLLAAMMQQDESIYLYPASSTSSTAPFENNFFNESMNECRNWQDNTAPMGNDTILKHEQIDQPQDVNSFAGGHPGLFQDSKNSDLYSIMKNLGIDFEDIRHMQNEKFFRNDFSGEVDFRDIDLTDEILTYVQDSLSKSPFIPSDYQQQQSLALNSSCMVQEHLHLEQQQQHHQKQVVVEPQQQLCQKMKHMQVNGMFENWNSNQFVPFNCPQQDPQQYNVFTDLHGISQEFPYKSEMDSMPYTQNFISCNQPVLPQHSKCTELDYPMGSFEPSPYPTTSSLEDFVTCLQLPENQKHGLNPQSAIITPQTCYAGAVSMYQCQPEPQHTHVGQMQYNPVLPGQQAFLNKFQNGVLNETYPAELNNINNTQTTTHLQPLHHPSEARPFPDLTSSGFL
# [15] = biological target: T2, ATP-dependent translocase ABCB1 (Homo sapiens, UniProt P08183); experiment: inhibition of BCRP-mediated JC-1 efflux – Ig-MXP3 cells, flow cytometry, set 2, dose response (AID 504566); type: functional; conditions: read-out: EC50_MICROM_;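 further: flow cytometry median green fluorescence of retained JC-1 dye; potency of efflux pump inhibition measured as rising substrate retention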
# T2 sequence (P08183 whole entry): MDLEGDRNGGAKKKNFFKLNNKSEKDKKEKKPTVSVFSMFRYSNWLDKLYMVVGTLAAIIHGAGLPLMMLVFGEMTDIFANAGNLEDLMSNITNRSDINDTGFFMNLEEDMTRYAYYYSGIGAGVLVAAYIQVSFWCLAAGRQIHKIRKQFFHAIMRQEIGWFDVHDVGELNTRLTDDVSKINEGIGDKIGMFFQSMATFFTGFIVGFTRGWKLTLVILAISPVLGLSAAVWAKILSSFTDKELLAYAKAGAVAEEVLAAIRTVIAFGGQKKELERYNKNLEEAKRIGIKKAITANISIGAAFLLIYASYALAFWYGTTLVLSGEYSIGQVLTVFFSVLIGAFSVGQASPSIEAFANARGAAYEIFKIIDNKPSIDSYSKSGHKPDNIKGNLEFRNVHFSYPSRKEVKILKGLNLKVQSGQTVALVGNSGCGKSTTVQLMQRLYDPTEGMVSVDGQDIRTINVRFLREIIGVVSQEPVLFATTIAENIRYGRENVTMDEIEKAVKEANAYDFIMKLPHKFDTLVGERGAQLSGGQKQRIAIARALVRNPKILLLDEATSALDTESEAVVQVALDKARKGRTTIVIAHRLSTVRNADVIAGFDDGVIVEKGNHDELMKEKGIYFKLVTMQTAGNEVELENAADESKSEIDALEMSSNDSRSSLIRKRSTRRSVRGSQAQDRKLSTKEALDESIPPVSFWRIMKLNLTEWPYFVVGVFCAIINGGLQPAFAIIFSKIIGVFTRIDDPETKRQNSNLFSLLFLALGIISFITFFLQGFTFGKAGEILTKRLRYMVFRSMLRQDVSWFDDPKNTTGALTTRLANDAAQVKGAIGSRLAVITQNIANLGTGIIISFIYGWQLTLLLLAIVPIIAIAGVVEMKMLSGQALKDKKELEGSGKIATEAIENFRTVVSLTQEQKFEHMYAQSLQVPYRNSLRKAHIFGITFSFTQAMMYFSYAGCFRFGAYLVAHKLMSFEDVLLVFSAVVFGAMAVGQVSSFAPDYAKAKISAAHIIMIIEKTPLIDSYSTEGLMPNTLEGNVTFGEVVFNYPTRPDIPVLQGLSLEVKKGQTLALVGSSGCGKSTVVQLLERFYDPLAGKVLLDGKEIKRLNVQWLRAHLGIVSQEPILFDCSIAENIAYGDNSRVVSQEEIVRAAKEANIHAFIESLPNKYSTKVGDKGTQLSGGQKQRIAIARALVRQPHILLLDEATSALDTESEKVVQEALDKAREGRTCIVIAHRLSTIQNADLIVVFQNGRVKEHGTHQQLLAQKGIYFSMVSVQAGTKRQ
# [16] = biological target: T2, ATP-dependent translocase ABCB1; experiment: P-gp JC-1 efflux blockade concentration-response – Jurkat-DNR cells, flow cytometry, set 2, dose response (AID 504569); type: functional; conditions: read-out: EC50_MICROM_;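 further: potency of pump inhibitors that raise cellular JC-1 green fluorescence up to the nicardipine level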
# [17] = biological target: T3, Aurora kinase A (Homo sapiens, UniProt O14965); type: functional;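 further: value from the Navigating the Kinome kinase panel profiling, panel entry STK6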
# T3 sequence (O14965 whole entry): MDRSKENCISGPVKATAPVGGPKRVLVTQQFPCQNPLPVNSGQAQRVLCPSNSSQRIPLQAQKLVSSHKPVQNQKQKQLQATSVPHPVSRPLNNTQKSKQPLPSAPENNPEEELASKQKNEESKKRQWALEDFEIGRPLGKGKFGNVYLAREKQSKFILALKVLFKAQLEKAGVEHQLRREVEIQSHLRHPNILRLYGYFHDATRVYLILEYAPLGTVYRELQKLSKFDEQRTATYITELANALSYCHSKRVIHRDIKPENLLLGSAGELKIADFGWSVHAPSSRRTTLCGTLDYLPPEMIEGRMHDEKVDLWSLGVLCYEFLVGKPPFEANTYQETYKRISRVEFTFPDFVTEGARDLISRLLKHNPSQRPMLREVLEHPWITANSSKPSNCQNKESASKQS
# [18] = biological target: Aurora kinase B (Homo sapiens, UniProt Q96GD4); type: functional
# Sequence of Aurora kinase B (Q96GD4 whole entry): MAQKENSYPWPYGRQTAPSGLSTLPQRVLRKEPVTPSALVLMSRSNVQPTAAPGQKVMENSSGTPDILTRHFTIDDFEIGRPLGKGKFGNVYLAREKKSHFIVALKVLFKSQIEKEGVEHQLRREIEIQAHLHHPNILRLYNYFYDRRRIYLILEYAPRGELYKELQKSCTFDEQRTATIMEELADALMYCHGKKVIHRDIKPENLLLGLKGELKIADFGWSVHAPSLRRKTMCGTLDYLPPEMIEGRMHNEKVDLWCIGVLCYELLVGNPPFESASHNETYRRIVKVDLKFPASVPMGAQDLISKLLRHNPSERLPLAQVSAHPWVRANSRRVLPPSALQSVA
# [19] = biological target: Inhibitor of nuclear factor kappa-B kinase subunit epsilon (Homo sapiens, UniProt Q14164); experiment: Navigating the Kinome. Panel member name: IKBKE; type: functional
# [20] = biological target: Hepatocyte nuclear factor 4-alpha (Homo sapiens, UniProt P41235); type: functional, cell-based;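 further: biochemical luminescence-based dose-response counterscreen measuring inhibition of HNF4 dimerization, run alongside a screen for blockers of ABHD5–perilipin-5 interaction; split luciferase complementation of HNF4 fusion proteins in cell lysate measuring dimerization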
# [21] = biological target: Vascular endothelial growth factor receptor 2 (Homo sapiens, UniProt P35968); type: functional
# [22] = biological target: T4, Carboxy-terminal domain RNA polymerase II polypeptide A small phosphatase 1 (Homo sapiens, UniProt Q9GZU7); experiment: CTDSP1 inhibitors, concentration-response, biochemical, absorbance readout, ultra-high-throughput screen actives (AID 540297); type: functional
# T4 sequence (Q9GZU7 whole entry): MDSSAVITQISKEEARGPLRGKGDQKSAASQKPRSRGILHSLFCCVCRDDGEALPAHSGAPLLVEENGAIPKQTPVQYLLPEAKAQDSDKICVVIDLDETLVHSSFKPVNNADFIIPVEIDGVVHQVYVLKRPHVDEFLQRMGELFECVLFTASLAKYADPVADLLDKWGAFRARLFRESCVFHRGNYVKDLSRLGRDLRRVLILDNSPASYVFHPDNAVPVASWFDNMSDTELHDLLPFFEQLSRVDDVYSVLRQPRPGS
# [23] = biological target: DNA (cytosine-5)-methyltransferase 1 (Homo sapiens, UniProt P26358); experiment: inhibition of DNA methylation by DNMT1 – biochemical, fluorescent molecular beacon, confirmation (AID 602386); type: functional
# Sequence of DNA (cytosine-5)-methyltransferase 1 (P26358 whole entry): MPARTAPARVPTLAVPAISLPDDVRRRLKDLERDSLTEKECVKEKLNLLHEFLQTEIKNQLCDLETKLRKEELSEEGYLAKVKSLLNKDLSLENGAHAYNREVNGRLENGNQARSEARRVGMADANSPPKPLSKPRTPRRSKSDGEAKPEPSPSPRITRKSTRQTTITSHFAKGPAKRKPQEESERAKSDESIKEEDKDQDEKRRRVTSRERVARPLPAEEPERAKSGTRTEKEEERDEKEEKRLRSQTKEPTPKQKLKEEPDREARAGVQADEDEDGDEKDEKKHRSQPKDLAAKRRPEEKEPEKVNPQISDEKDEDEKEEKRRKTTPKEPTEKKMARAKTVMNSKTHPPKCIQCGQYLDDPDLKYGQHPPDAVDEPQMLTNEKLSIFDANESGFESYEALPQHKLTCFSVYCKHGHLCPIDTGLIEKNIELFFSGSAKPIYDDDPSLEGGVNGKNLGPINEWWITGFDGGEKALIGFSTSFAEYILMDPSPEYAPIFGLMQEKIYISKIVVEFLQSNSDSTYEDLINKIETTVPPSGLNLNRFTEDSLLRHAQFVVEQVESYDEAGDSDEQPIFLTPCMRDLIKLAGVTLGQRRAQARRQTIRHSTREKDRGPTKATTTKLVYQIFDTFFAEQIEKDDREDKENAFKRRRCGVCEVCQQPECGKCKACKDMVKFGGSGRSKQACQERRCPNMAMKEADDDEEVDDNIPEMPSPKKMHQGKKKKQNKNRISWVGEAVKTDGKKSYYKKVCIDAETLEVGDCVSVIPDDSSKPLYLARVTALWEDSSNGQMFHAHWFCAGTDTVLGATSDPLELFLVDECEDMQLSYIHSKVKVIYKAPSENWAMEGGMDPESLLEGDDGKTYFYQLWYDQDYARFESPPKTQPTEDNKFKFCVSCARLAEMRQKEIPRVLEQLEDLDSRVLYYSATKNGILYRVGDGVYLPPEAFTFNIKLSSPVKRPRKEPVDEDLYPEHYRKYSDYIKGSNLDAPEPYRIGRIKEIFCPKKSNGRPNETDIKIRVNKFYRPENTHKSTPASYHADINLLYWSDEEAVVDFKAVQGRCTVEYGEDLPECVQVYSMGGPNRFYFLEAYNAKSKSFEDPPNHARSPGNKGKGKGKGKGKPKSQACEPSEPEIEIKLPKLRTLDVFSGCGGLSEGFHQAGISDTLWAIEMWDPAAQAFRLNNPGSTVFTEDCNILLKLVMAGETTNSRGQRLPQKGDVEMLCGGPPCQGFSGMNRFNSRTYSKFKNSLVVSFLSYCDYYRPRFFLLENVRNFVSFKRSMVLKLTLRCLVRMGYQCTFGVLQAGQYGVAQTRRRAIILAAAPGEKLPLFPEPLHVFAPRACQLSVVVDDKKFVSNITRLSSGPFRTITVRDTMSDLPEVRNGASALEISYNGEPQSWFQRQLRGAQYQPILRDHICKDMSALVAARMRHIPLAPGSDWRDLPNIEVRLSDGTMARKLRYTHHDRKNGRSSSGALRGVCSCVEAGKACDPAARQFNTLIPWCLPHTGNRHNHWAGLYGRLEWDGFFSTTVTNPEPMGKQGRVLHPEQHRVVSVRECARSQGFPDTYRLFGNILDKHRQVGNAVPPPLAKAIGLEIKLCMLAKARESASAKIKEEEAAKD
# [24] = biological target: T5, Probable nicotinate-nucleotide adenylyltransferase (Staphylococcus aureus (strain N315), UniProt P65502); type: functional, Staphylococcus aureus subsp. aureus N315;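 on IC50 Mean: confirmatory dose-response retesting of NadD inhibitor hits first found in an ultra-high-throughput screen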
# T5 sequence (P65502 whole entry): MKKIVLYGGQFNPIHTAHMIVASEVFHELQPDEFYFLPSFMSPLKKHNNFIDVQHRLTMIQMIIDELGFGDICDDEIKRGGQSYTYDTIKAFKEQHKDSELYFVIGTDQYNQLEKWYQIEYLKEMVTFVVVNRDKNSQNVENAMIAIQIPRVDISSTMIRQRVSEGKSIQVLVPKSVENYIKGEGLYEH
# [25] = biological target: T5, Probable nicotinate-nucleotide adenylyltransferase; type: functional, Staphylococcus aureus subsp. aureus N315; conditions: read-out: IC50_Mean
# [26] = biological target: Beta-2 adrenergic receptor (Homo sapiens, UniProt P07550); experiment: ADRB2 activation measured by internalization – cell-based, FAP fluorogen, flow cytometry, cherry pick 1, dose response (AID 588763); type: functional
# [27] = biological target: Melanocortin receptor 4 (Homo sapiens, UniProt P32245); type: functional, cell-based;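 further: Cell-based assay with luminescence read-out, confirmatory dose-response testing for agonist activity of biased ligands at MC4R; human U2OS cells with tagged receptor and beta-arrestin; potency of agonists that increase receptor coupling to beta-arrestin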
# [28] = biological target: T6, DNA repair protein RAD52 homolog (Homo sapiens, UniProt P43351); type: functional, biochemical
# T6 sequence (P43351 whole entry): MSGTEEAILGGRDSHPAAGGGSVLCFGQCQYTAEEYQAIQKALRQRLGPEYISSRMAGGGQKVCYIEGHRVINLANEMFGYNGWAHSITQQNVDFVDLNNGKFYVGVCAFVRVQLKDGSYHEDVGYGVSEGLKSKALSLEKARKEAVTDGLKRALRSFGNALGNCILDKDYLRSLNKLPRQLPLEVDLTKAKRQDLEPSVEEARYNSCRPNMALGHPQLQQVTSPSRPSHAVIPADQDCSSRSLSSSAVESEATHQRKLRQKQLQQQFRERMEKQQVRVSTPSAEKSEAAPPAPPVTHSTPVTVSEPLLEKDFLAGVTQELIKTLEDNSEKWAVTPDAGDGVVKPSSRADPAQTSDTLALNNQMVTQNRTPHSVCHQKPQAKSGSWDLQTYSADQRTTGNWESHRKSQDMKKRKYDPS
# [29] = biological target: Paired box protein Pax-8 (Homo sapiens, UniProt Q06710); experiment: PAX8 transcriptional activity inhibition in RMG-I – RMG-I cells, luciferase, cherry-pick, dose response (AID 687027); type: functional, cell-based;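 further: luciferase reporter driven by Pax8 target thyroperoxidase promoter measured by SteadyGlo luminescence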
# [30] = biological target: Dual specificity protein kinase CLK4 (Homo sapiens, UniProt Q9HAZ1); type: functional
# [31] = biological target: Activin receptor type-1 (Homo sapiens, UniProt Q04771); experiment: Navigating the Kinome. Panel member name: ACVR1; type: functional
# [32] = biological target: Cyclin-dependent kinase 8 (Homo sapiens, UniProt P49336); experiment: Navigating the Kinome. Panel member name: CDK8; type: functional
# [33] = biological target: Photoreceptor-specific nuclear receptor (Homo sapiens, UniProt Q9Y5X4); type: functional, cell-based;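 further: CHO-S cells with Gal4-NCOR and VP16-NR2E3 two-hybrid luciferase reporter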
# Sequence of Photoreceptor-specific nuclear receptor (Q9Y5X4 whole entry, the tested form may be a part): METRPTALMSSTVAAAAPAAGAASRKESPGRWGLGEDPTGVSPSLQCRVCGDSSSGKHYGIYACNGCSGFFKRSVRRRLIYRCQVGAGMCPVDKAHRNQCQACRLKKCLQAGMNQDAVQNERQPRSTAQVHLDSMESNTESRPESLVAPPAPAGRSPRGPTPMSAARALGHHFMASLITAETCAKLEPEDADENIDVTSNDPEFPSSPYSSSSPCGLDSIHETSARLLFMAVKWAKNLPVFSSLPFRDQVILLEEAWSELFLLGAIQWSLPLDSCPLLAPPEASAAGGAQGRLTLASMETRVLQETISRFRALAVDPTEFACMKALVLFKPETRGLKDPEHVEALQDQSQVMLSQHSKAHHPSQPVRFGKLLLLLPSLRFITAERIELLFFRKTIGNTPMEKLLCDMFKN
structure (smiles),measurement,setting,value
O=C(Nc1ccc(O)cc1C(=O)O)c1cccc(Br)c1,IC50,[1],19.1 µM (inactive)
Cn1cccc1/C=C1\C(=O)NC(=O)N(Cc2ccccc2)C1=O,CC50,[2],> 40 µM (active)
same,IC50,[3],23.4 µM (active)
same,CC50,[4],> 40 µM (active)
same,EC50,[5],> 59.6 µM (inactive)
same,EC50,[6],> 59.6 µM (inactive)
O=C(O)c1ccccc1Nc1ccnc(N2CCCCC2)n1,Ki,[7],3.98 µM (active)
same,Ki,[8],> 100 µM (inactive)
COc1ccc(N2CCN(c3[nH]cnc4c5ccccc5nc3-4)CC2)cc1,AC50,[9],865 nM (active)
same,IC50,[10],1.14 µM (active)
same,IC50,[11],5.54 µM (active)
CC(=O)N1CCN(c2ccc(OC[C@H]3CO[C@](Cn4ccnc4)(c4ccc(Cl)cc4Cl)O3)cc2)CC1 [KETOCONAZOLE],CC50,[12],> 40 µM (active)
same,AC50,[13],435 nM (active)
same,AC50,[14],44.7 µM (inconclusive)
O=C(c1ccoc1)N1CCN(c2cc(-c3ccccc3)nc3cc(-c4ccc(Br)cc4)nn23)CC1,EC50,[15],600 nM (active)
same,EC50,[16],1.06 µM (active)
Cc1cccc(NC(=O)Nc2ccc(-c3nn(C)c4ncnc(N)c34)cc2)c1,Ki,[17],39.8 nM (active)
same,Ki,[18],1.58 nM (active)
same,Ki,[19],501 nM (active)
Cc1ccc(S(=O)(=O)N2C[C@H]3n4c(=O)ccc(=O)n4C[C@H](OC(=O)Nc4cccs4)[C@@]3(O)C2)cc1,IC50,[20],14.6 µM (inactive)
Cc1n[nH]c2c1c(=O)n(C)c1ccccc21,Ki,[17],1000 nM (active)
same,Ki,[21],631 nM (active)
same,Ki,[18],50.1 nM (active)
CN(C)C(CNC(=O)c1cc(-c2ccco2)nc2ccccc12)c1ccccc1 (stereo unspecified),IC50,[22],2.75 µM (active)
same,IC50,[23],6.25 µM (active)
same,IC50,[24],11.2 µM (active)
same,IC50,[25],25.9 µM (active)
COc1ccc(-c2cc(C(F)(F)F)nc(S(=O)(=O)CCC(=O)N3CCOCC3)n2)cc1,EC50,[26],25.3 µM (inactive)
CC(=O)Nc1cc(-c2cccc(C(=O)NCCN(C)C)c2)cn2c(-c3cccc(C(F)(F)F)c3)cnc12,EC50,[27],> 89.2 µM (inactive)
same,AC50,[28],3.93 µM (active)
same,AC50,[29],11.5 µM (active)
O=c1cc(Cc2nc3ccccc3[nH]2)[nH]n1-c1ccccc1,Ki,[8],> 100 µM (inactive)
same,Ki,[30],1.26 µM (active)
Cc1nn(C)c(=O)c(N)c1-c1ccccc1,Ki,[31],50.1 µM (active)
same,Ki,[32],31.6 µM (active)
COc1ccc(CNC(=O)c2cccc3c(-c4ccc(F)c(F)c4)coc23)cc1OC,IC50,[33],4.63 µM (active)
